Source: patent US20090117140A1, “Human papilloma virus dominant CD4 T cell epitopes and uses thereof” (priority 2007, published 2009)
Entries after “also recorded” stand apart in the source; their conditions may differ.

B1: E7 protein: recombinant HPV 16 E7 protein pulsed to autologous mature dendritic cells (protein)
chain: MHGDTPTLHEYMLDLQPETTDLYCYEQLNDSSEEEDEIDGPAGQAEPDRAHYNIVTFCCKCDSTLRLCVQSTHVDIRTLEDLLMGTLGIVCPICSQKP

Assays:
[1] = system: E7 56-70 specific T-cell clones from subject 15-04; assay: Enzyme-linked immunospot assays defining the core sequence of the CD4 T-cell epitope; conditions: for Response (spot-forming units) among the six overlapping 10-mer peptides: FIG. 3A, three of the four T-cell clones tested; for Response (spot-forming units) among the six overlapping 10-mer peptides / Number of spot-forming units, 15-mer, 11-mer, 10-mer and 9-mer peptides compared: peptide concentration 10 μM; for Number of spot-forming units, 15-mer, 11-mer, 10-mer and 9-mer peptides compared: FIG. 3B; for Number of spot-forming units with serially diluted peptides: FIG. 3C, clones #45 and #207
[2] = system: Human Leukocyte Antigen class II molecule; assay: Enzyme-linked immunospot assay identifying the restricting Human Leukocyte Antigen molecule; conditions: allogeneic B-lymphoblastoid cell line cells sharing class II molecules with subject 15-04, E7 56-70 peptide used in the assay
[3] = system: Human Leukocyte Antigen molecule; conditions: from the literature; cited from earlier work
[4] = system: T-cell clones from subject 15-04; assay: Enzyme-linked immunospot assay for exogenous presentation (pulsed autologous dendritic cells); conditions: FIG. 2B; clones #11, #207, #304; 2.5×10^3 dendritic cells per well

Molecule	Number of spot-forming units, 15-mer, 11-mer, 10-mer and 9-mer peptides compared [1]	Restriction element of described epitope [3]	other results
CCKCDSTLRL (E7 58-67 peptide from immunodominant epitope region of Human Papilloma Virus 16 E7 protein)	Equally large numbers of spot-forming units; also recorded: equally high number of spot-forming units		Response (spot-forming units) among the six overlapping 10-mer peptides [1]: strongest response; also recorded: highest number of spot-forming units; Number of spot-forming units with serially diluted peptides [1]: equivalent numbers of spot forming units; also recorded: equivalent numbers of spot-forming units
CCKCDSTLRLC (E7 58-68 peptide from immunodominant epitope region of Human Papilloma Virus 16 E7 protein)	Equally large numbers of spot-forming units; also recorded: equally high number of spot-forming units		Number of spot-forming units with serially diluted peptides [1]: equivalent numbers of spot forming units; also recorded: equivalent numbers of spot-forming units; Restriction element [2]: Human Leukocyte Antigen-DR17 molecule; Restriction element ([2]; listed as HPV 16 E7 58-68): Human Leukocyte Antigen-DR17 molecule; Restriction element ([2]; listed as novel CD4 T-cell epitope): Human Leukocyte Antigen-DR 17 molecule; Restriction element ([2]; listed as novel HPV 16 E7 CD4 T-cell epitope): Human Leukocyte Antigen-DR17 molecule
CKCDSTLRLC (E7 59-68 peptide from immunodominant epitope region of Human Papilloma Virus 16 E7 protein)	Equally large numbers of spot-forming units; also recorded: equally high number of spot-forming units		Response (spot-forming units) among the six overlapping 10-mer peptides [1]: strongest responses; also recorded: highest number of spot-forming units; Number of spot-forming units with serially diluted peptides [1]: equivalent numbers of spot forming units; also recorded: equivalent numbers of spot-forming units
E6 43-57: previously described HPV 18 E6 CD4 epitope (EVFEFAFKDLFVVYR; UniProt P06463 43-57, looked up, fragment)		Human Leukocyte Antigen-DRB1*15	
E6 127-141: previously described HPV 16 E6 CD4 epitope (DKKQRFHNIRGRWTG; UniProt P03126 127-141, looked up, fragment)		Human Leukocyte Antigen-DRB1*01	
E7 35-50: previously described Human Papilloma virus-specific CD4 T-cell epitope of the E7 protein (EDEIDGPAGQAEPDRA; UniProt P03129 35-50, looked up, fragment)		Human Leukocyte Antigen-DQ2	
E7 43-77: previously described Human Papilloma virus-specific CD4 T-cell epitope of the E7 protein (GQAEPDRAHYNIVTFCCKCDSTLRLCVQSTHVDIR; UniProt P03129 43-77, looked up, fragment)		Human Leukocyte Antigen-DR3	
E7 50-62: previously described Human Papilloma virus-specific CD4 T-cell epitope of the E7 protein (AHYNIVTFCCKCD; UniProt P03129 50-62, looked up, fragment)		Human Leukocyte Antigen-DR15	
E7 59-67: 9-mer peptide of HPV 16 E7 contained in the 11-mer E7 58-68 (CKCDSTLRL; UniProt P03129 59-67, looked up, fragment)	negative repeatedly		
E7 60-68: 9-mer peptide of HPV 16 E7 contained in the 11-mer E7 58-68 (KCDSTLRLC; UniProt P03129 60-68, looked up, fragment)	negative repeatedly		
E7 61-80: previously described Human Papilloma virus-specific CD4 T-cell epitope of the E7 protein (CDSTLRLCVQSTHVDIRTLE; UniProt P03129 61-80, looked up, fragment)		Human Leukocyte Antigen-DR9	
EPDRAHYNIVTFCCKCDSTLRLCVQ (E7 46-70 peptide from immunodominant epitope region of Human Papilloma Virus 16 E7 protein) [HPV type 16 E7 46-70]			Restriction element [2]: Human Leukocyte Antigen major histocompatibility complex class II molecule
HPV 16 E7 71-85: previously described HPV 16 E7 epitope, 15 amino acids long (STHVDIRTLEDLLMG; UniProt P03129 71-85, looked up, fragment)		Human Leukocyte Antigen-DQB1*02	
LEDLLMGTL (E7 79-87 control peptide from immunodominant epitope region of Human Papilloma Virus 16 E7 protein) [HPV 16 E7 79-87]		Human Leukocyte Antigen-B69	
B1			Response (interferon-γ secretion) of T-cell clones to pulsed autologous dendritic cells [4]: demonstrated interferon-γ secretion; also recorded: positive responses
